From PMC9791135, “A penetratin-derived peptide reduces the membrane permeabilization and cell toxicity of α-synuclein oligomers” (The Journal of Biological Chemistry, 2022)

How the values were obtained:
[1] = molecular target: T1, α-syn (Homo sapiens, UniProt P37840); assay: ATR–FTIR of fibrillated α-syn–peptide samples; assay type: biochemical; settings: for ATR–FTIR (amyloid structures): fibrillated samples after washing, versus α-syn alone; for Amount of amyloid structures (ATR–FTIR), in words: fibrillated α-syn samples in the presence of peptides
T1 construct: made in house; host or cells: Escherichia coli BL21 (DE3), plasmid pET11-D
Description: (§1) To analyze the secondary structure of the final aggregates, we recorded far-UV CD and attenuated total reflectance (ATR)–FTIR spectra for fibrillated samples after washing to remove free α-syn and peptides. […] Overall, as the concentration of peptides increases, the intensity of signal at 218 nm decreases (Fig. 4A). We observed that α-syn fibrils formed in the presence of p194, p222, p235, and p249 precipitated rapidly after mixing with these peptides. This likely gives rise to light scattering, which reduces CD signals. To overcome these artifacts, we turned to ATR–FTIR spectroscopy, which is not sensitive to scattering. […] Both far-UV CD and ATR–FTIR spectroscopy confirm extensive β-sheet structure. However, in the presence of peptides, some structural changes were observed as reflected by the decrease in the amyloid cross β-sheet structure at ∼1629 cm^−1 and increases in the random and coil structures (∼1656 and ∼1676 cm^−1, respectively) (Table 2). […] Taking all together, ATR–FTIR data are in reasonable agreement with far-UV CD.
The samples prepared in the CD section were also used to measure FTIR spectra on a Tensor 27 FTIR spectrophotometer (Bruker). About 2 μl α-syn fibrils were dried on the ATR crystal with a gentle stream of nitrogen gas. Spectra were accumulations of 68 scans in the 4000 to 1000 cm^−1 range. Baseline correlation, second derivative, and atmospheric compensation were performed with OPUS 5.5 software (Bruker, Germany). Signals in the amide I region (∼1550–1700 cm^−1) were smoothed and deconvoluted with PeakFit, version 4.12 software (ِSystat Software Inc) using Lorentzian fitting.

[2] = Calcein release assay, substance alone; settings: for Permeabilization of lipid vesicles by peptide alone: calcein-loaded DOPG vesicles, 10^−6 to 10^−1 mg/ml peptide, 37 °C, triplicate
Protocol: (§2) αSOs show cytotoxic properties, which have been attributed to their membrane-disrupting ability ([69]). To examine the effect of peptides on membrane permeabilization by αSOs, we used a simple calcein release assay. αSOs, peptides, and aSO–peptide mixtures at 10^−6 to 10^−1 mg/ml peptide were added to calcein-loaded DOPG vesicle, and the extent of calcein release was monitored for 30 min by the increase in fluorescence as calcein leaks out upon membrane permeabilization, leading to dilution and the loss of self-quenching. The time-dependent calcein release data from DOPG vesicles ([70], [71]) in the presence of peptides, αSOs, and αSO–peptides are shown in Figs. S9 and S10. In order to allow easy comparison of all peptides, the calcein release versus concentration (peptides and αSOs) were plotted at the plateau point of release (Fig. 5, A–C). […] Figure 5D compares calcein release percentages of data represented in Figure 5, A and B at peptide concentrations between 0.001 and 0.1 mg/ml, where we see the largest extent of calcein release in general.
(§3) Calcein-filled vesicles of DOPG were prepared as described before ([38]). Briefly, DOPG was dissolved in PBS to […], in the presence of calcein at self-quenching concentrations (70 mM) and subjected to 10 freeze–thaw cycles between liquid nitrogen and a 50 °C water bath. After 21 times extrusion through a 100 nm filter, free calcein was separated from vesicles with a PD-10 desalting column (GE Healthcare). Vesicles were stored at 4 °C and used for calcein release assays within 24 h.
(§4) Calcein release was measured by mixing peptides and/or αSOs at a final concentration of 10^−6 to 10^−1 mg/ml and 5.2 μg/ml, respectively, in 148 μl with 2 μl of calcein vesicles, and were then loaded onto a 96-well plate (Nunc, Thermo Fischer Scientific) in triplicate. The plate was sealed with Crystal clear sealing tape (Hampton Research), and fluorescence was measured (excitation: 485 nm and emission: 520 nm) for 1 h at 37 °C every 2 min with a 2 s autoshake before each reading on a fluorescence plate reader (Tecan). Finally, 2 μl Triton X-100 (0.2% [v/v]) was added to lyse vesicles, and the maximal fluorescence signal was measured for 20 min under the same reading condition. Background fluorescence was subtracted, and the average signal of calcein release before addition of Triton X-100 (F), after treatment with Triton X-100 (Ft) and for the buffer control (F0) were determined, and calcein release percentage was calculated as follow (Equation 1):(1) CalceinRelease%(CR%)=(F−F0)/(Ft−F0)

[3] = molecular target: T2, αSOs (Homo sapiens, UniProt P37840); assay: Calcein release assay, αSOs together with peptides; assay type: biochemical; settings: αSOs at calcein^50% (5.2 μg/ml)
T2 construct: made in house; host or cells: Escherichia coli BL21 (DE3); oligomers formed by shaking the monomer and isolated by SEC (Superose 6)
Protocol: as §2, §3, §4

[4] = molecular target: T1, α-syn; assay: Far-UV CD of fibrillated α-syn–peptide samples; assay type: biochemical; settings: fibrillated samples after washing, signal at 218 nm; versus α-syn alone
Description: as §1
To remove free α-syn and peptides, fibrillated samples were centrifuged (13,000 rpm, 15 min). This leaves monomeric α-syn plus unbound and free peptides in the supernatant. The supernatant was discarded, and the pellet was washed two times in the same volume of PBS buffer, pH 7.4, to ensure complete removal of monomeric α-syn and free peptides. Far-UV CD spectra were recorded at 25 °C on a Chirascan CD Spectrophotometer (Applied Photophysics) using a 0.1 mm quartz cuvette in the wavelength range of 200 to 260 nm with 1 nm bandwidth and three accumulations. The buffer spectrum was subtracted, and the results were expressed as mean residue ellipticity [θ] (deg cm^2 dmol^−1).

[5] = molecular target: T1, α-syn; assay: ThT fluorescence assay of unseeded α-syn fibrillation in the presence of peptides; assay type: biochemical; settings: 1 mg/ml α-syn, 0–0.5 mg/ml peptide, 48 h
Protocol: To test the effects of these selected nine peptides on the aggregation of α-syn, we performed a thioflavin T (ThT) fluorescence assay in the presence of 1 mg/ml α-syn and 0 to 0.5 mg/ml peptide for 48 h (raw data in Fig. S3). Furthermore, the peptides alone were monitored for self-fibrillation. […] High concentrations of p222, p194, and p249 led to a decline in ThT fluorescence after reaching a plateau, possibly because of the formation of insoluble amorphous species. We also carried out seeding experiments by adding 5% sonicated preaggregated α-syn fibrils to the ThT assay.
About 150 μl of 70 μM (1 mg/ml) α-syn, 40 μM ThT, and varying amounts of peptides (0, 0.06, 0.125, 0. 25, 0.375, and 0.5 mg/ml) were transferred in triplicates to a black COSTAR 96-well clear bottom plate (Nunc, Thermo Fisher Scientific), and including a 3 mm diameter glass bead (Glaswarenfabrik Karl Hecht GmbH & Co KG) per well to increase reproducibility ([100]). The plate was sealed with Crystal Clear sealing tape (Hampton Research) and incubated at 37 °C in a CLARIOstar Plus (BMG LABTECH) fluorescence plate reader. Fibrillation was carried out for ∼48 h with 300 rpm double orbital shaking between the readings for 372 s (excitation/emission: 448∕485 nm). Seeding experiments were performed using the same setting as for the fibrillation assay as described ([39]). Briefly, the experiments were done in triplicates in the presence of 0.05 mg/ml of α-syn fibril seeds (5% seeding) and 1 mg/ml of peptides in a solution of 1 mg/ml α-syn in 96-well plates.

[6] = molecular target: T1, α-syn; assay: TEM of α-syn aggregates formed with peptides; assay type: biochemical; settings: α-syn incubated in the presence of peptide
Protocol: Five microliters of each fibril-containing solution were applied to 400-mesh carbon-coated and glow-discharged nickel grids for 30 s, and blotted with filter paper to remove excess sample. The grids were washed with one drop of double distilled water and then stained with 3 μl of 1% uranyl formate for 15 s. Excess stain was removed by blotting paper This step was repeated two more times. Finally, the grids were left to air dry and viewed on a Tecnai G2 Spirit (FEI Company) operating at 60 kV, and images were taken using a TemCam F416 camera (TVIPS).

[7] = molecular target: T1, α-syn; assay: SDS-PAGE of soluble α-syn left in supernatant after fibrillation; assay type: biochemical; settings: SDS-PAGE after centrifugation of fibrillated samples
Protocol: Overall, there was a reasonable but not perfect correspondence between SDS-PAGE and ThT data.
To determine the amount of soluble α-syn, fibrillated samples were centrifuged (13,000 rpm, 15 min) and the supernatants were loaded on Bis–Tris 15% acrylamide gel with prestained protein ladder (Thermo Scientific) and run in a Bis–Tris running buffer at 150 V for 70 min, stained for 20 min in Coomassie brilliant blue (1.2 mM Coomassie brilliant blue, 5% ethanol, and 7% acetic acid), and destained overnight in a destaining solution (5% ethanol and 5% acetic acid). Gel bands were quantified using ImageJ.

[8] = system: Aβ; settings: cited from earlier work
Description: Penetratin is a widely used CPP. Translocation of full-length and N-terminal truncated ([82]) penetratin has been observed in all cell types, and it is also able to cross the blood–brain barrier (BBB) ([83]). Its mechanism of translocation in live cells is complex and involves structural changes from random coil to α-helix ([84]) and transient formation of tubes or inverted micelles in the membrane that entrap the peptide in its interior. […]. The presence of Trp and net positively charged amino acid residues are important for formation of inverted ...

Substance | ATR–FTIR (amyloid structures) [1] | Amount of amyloid structures (ATR–FTIR), in words [1] | Peptide concentration from which membrane toxicity is shown ([2]; peptide alone, calcein-filled DOPG LUVs, tested range 10^−1–10^−6 mg/ml) | Effect on vesicle permeabilization by αSOs ([3]; peptide 0.1 mg/ml) | Far-UV CD (β-sheet structures) [4] | Effect on α-syn aggregation (ThT), in words [5] | ThT signal end level ([5]; unseeded ThT, 37 °C, versus α-syn alone) | Morphology of α-syn aggregates (TEM), in words [6] | Amount of soluble α-syn monomer left in the supernatant, in words [7] | Permeabilization of lipid vesicles by peptide alone [2] | Effect on vesicle permeabilization by αSOs ([3]; peptide 10^−6 to 10^−1 mg/ml) | Inhibition of amyloid aggregate formation (Aβ fibrillation) [8]
RQIKIWFQARRMKWKK [p194, Ala scan variant of penetratin] | ↓↓↓ amyl | decreased | > 10^−2 mg/ml | increased vesicle permeabilization by αSOs | ↓↓↓β | inhibitory effect | ↓↓ | nonfibrillar (amorphous) accumulations |  |  |  | 
KEGVVAAAEKTKQG [p12] | ↓ amyl | did not show significant changes in FTIR spectra |  |  | ↓β | did not change the lag phase duration |  | did not cause any significant change in morphology | do not affect the amount of monomer left in the supernatant | did not permeabilize lipid vesicles | failed to affect vesicle permeabilization by αSOs | 
RQILIWFQNRRMLWLL [pAntp-BSB1] |  |  |  |  |  |  |  |  |  |  |  | particularly effective inhibitors
SASDSRTFKSSGG [p162] |  | slightly decreased the amount of amyloid |  |  | ↓β | did not change the lag phase duration |  | did not cause any significant change in morphology | do not affect the amount of monomer left in the supernatant | did not permeabilize lipid vesicles | failed to affect vesicle permeabilization by αSOs | 
MKGLSKAKEGVVAA [p5] | ↓ amyl | slightly decreased the amount of amyloid |  |  | ↓β | did not change the lag phase duration |  | did not cause any significant change in morphology | do not affect the amount of monomer left in the supernatant | did not permeabilize lipid vesicles | failed to affect vesicle permeabilization by αSOs | 
RQIKIWFQNRRMLWLXaa [pAntp] |  |  |  |  |  |  |  |  |  |  |  | particularly effective inhibitors
